What was measured:
[1] = target: T1, D3 dopamine receptor (Homo sapiens, UniProt P35462)
[2] = target: T1, D3 dopamine receptor; assay: Forskolin-dependent adenylyl cyclase inhibition assay (cAMP-Glo, HEK cells); format: cell-based; set-up: expressed in transfected cells; host or cells: HEK293; details: human D3, test compound at 10x Ki, normalized to quinpirole 10,000 nM
Description: (§1) Quinpirole was used as a reference prototypic full agonist and haloperidol was used as a reference prototypic antagonist.
The forskolin-dependent adenylyl cyclase inhibition assay was performed using a cAMP-Glo Assay kit (Promega). For this assay cAMP stimulates protein kinase A (PKA) activity, which leads to a decrease in ATP levels and a decrease in the luciferase-coupled production of light. This is a 96 well plate assay using HEK cells stably transfected to express the human D3 dopamine receptor (10,000 cells/well/0.1 mL complete media). After removing media and rinsing with phosphate buffered saline, cells were incubated with 20 μL of forskolin (6000 nM) and test compound or vehicle. […] After cells, test compound (or vehicle) and forskolin (or vehicle) were incubated for 15 min, cells were lysed using 20 μL lysis buffer (provided with the kit) and mixed for 15 min at room temperature. A cAMP Detection Solution (40 μL) was added to each well, gently mixed for 60 s and incubated at room temperature for 20 min. The Kinase-Glo Solution was added (40 μL) to terminate the PKA reaction. The reaction mixture was gently mixed for 60 s and then incubated at room temperature for 10 min. The remaining ATP was detected via a luciferase reaction. The plates were read using an Enspire Alpha 2390 Multilabel Reader/Luminometer. Haloperidol (200 nM) and quinpirole (10,000 nM) was used as a prototypic reference antagonist and full agonist, respectively.
(§2) Figure 3 Comparison of the Efficacy of Phenylthiophene Analogs for Adenylyl Cyclase Inhibition and β-Arrestin Binding at Human D3 Dopamine Receptors. […] Values were normalized to reference full agonist quinpirole (10,000 nM).

[3] = target: T1, D3 dopamine receptor; assay: β-arrestin binding assay (DiscoverX PathHunter, DRD3-U2OS cells); format: cell-based; set-up: host or cells: U2OS (PathHunter eXpress DRD3-U2OS); details: human D3, test compound at 10x Ki, normalized to quinpirole
Description: as §1
The β-arrestin binding assay was performed using a DiscoverX Pathhunter® kit according to the manufacturer’s instructions. PathHunter® eXpress β-Arrestin GPCR cells are engineered to co-express the ProLink™ (PK) tagged GPCR and the Enzyme Acceptor (EA) tagged β-Arrestin. Activation of the GPCR-PK induces β-Arrestin-EA recruitment, forcing complementation of the two β-galactosidase enzyme fragments (EA and PK). The resulting functional enzyme hydrolyzes substrate to generate a chemiluminescent signal. DRD3-U2OS cells were seeded according to kit instructions into white plastic 96-well plates (provided with the kit) 48 h prior to the assay in a volume of 100 μL/well using the Cell Plating Reagent (CPR) provided. Vehicle or test drug, diluted in CPR, was added to the designated wells and incubated for 90 min at 37 °C. Working detection solution (a component provided with the kit) was added to the wells and incubated for 1 h in the dark at room temperature. As discussed for the cyclase assay, an Enspire Alpha 2390 Multilabel Reader/Luminometer was used to detect the luminescent signal with haloperidol and quinpirole used as reference antagonist and full agonist, respectively.
as §2

[4] = target: T2, human 5-HT1A receptor (Homo sapiens, UniProt P08908); assay: 5-HT1A receptor binding ([3H]8-hydroxy-DPAT displacement, CHO-K1 membranes)
T2 construct: expressed in transfected cells; host or cells: CHO-K1
T2 sequence (P08908 1-422): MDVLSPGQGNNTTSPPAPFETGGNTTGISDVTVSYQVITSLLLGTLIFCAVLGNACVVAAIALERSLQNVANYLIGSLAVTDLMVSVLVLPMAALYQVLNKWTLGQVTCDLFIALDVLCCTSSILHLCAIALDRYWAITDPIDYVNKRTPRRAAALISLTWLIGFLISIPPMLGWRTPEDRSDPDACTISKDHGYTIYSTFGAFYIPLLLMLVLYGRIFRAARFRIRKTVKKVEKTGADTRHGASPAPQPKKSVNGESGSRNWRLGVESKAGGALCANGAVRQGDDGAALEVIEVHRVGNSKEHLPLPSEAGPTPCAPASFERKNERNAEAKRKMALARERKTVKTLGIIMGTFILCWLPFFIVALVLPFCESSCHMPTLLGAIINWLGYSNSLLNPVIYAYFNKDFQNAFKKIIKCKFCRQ
Description: Because the 5-HT1A receptor is a commonly observed off-site binding site for benzamide N-phenylpiperazine ligands, compounds were simultaneously screened for binding of our compounds at the human 5-HT1A receptor expressed in CHO-K1 cells, using the radioligand [^3H]-8-hydroxy-DPAT (8-OH-DPAT) (Table 2). Based upon the analysis of the displacement assay shown in Table 2, the orthosteric compounds 3c–f appeared to bind with low affinity at human 5-HT1A receptors.
10 μg of membranes from CHO-K1 cells expressing the human 5-HT1A receptor were suspended in 50 mM Tris-HCl, 10 mM MgSO4, 0.5 mM EDTA, and 0.1% (w/v) ascorbic acid, pH 7.4 and test ligands (91 nM for single point radioligand displacement assay and 1 nM to 1 μM for full competition assay) were incubated with 0.25 nM [^3H]8-hydroxy-DPAT (PerkinElmer, Boston, MA, USA) for 60 min at room temperature. The nonspecific binding was determined using 10 μM metergoline (Sigma, St. Louis, MO, USA). After incubation, the bound ligands were filtered using an M-24 Brandel filtration system (Brandel, Gaithersburg, MD, USA), collected on glass fiber papers (Whatman grade 934-AH, GE Healthcare Bio-Sciences, Pittsburgh, PA, USA), and the radioactivity was quantitated using a MicroBeta2 Microplate scintillation counter 2450 (PerkinElmer, Boston, MA, USA).

T1 sequence (P35462 whole entry): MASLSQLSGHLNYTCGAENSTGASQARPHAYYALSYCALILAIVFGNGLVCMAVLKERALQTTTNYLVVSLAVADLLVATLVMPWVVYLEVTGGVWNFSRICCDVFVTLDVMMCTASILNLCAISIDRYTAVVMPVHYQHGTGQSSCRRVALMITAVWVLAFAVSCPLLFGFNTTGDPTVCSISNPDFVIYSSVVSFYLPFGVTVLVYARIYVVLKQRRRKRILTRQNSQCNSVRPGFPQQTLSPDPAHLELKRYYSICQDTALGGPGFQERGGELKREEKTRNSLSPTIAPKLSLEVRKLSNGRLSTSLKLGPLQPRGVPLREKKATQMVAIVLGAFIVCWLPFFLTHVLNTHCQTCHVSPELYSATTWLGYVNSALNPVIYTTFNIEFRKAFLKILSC

Ki [1]: 1.4 ± 0.2 nM
D2:D3 Selectivity ([1]; ratio of D2 and D3 Ki values (Table 1)): 467
efficacy in adenylyl cyclase inhibition assay [2]: weak partial agonists
efficacy in β-arrestin binding assay [3]: weak partial agonists
5-HT1A affinity lower than D3 affinity ([4]; 5-HT1A Ki vs. D3 Ki): approximately 140 fold
Ki ([4]; full competition curve, [3H]-8-hydroxy-DPAT, at least three experiments, read-out: Ki at 5-HT1A receptor): 199 nM
5-HT1A receptor affinity/displacement in words ([4]; radioligand displacement assessment at 91 nM): decreased binding affinity
inhibition at 0.091 µM ([4]; single point displacement of [3H]-8-hydroxy-DPAT, 91 nM test compound, CHO-K1, ± S.E.M., n ≥ 3): -3.3 ± 15.1%
SMILES: O=C(NCCCCN1CCN(c2ccccc2F)CC1)c1ccc(-c2ccsc2)cc1 [Compound 6a]

From publication PMC8198181, “Evaluation of Substituted N-Phenylpiperazine Analogs as D3 vs. D2 Dopamine Receptor Subtype Selective Ligands” (Molecules, 2021)
